The values that follow come from patent publication US20260091136A1, “USING ENHO GENE THERAPY TO TREAT CARDIOMETABOLIC DISEASE” (University of Pittsburgh-of the Commonwealth System of …, priority 2023, published 2026).

For the experiment, the system named is CPT1b. In words: O-GlcNAc co-immunoprecipitation from heart: CPT1b. It is filed as in vivo, C57BL/6J mice. The following applies: Adropin-treated HFpEF mice, relative to levels in chow mice / HFpEF. The text has this:
Animal Care and Use. Male C57BL/6J 8-week-old mice were obtained from the Jackson Laboratory and maintained on chow for 4 weeks to acclimate to their new environment. Animals were housed in the University of Pittsburgh animal facility under standard conditions with ad libitum access to water and food and maintained on a constant 12-hour light/dark cycle. At 12 weeks of age, the mice were exposed to normal chow (Chow; 60% carbohydrate, 26% protein, 14% fat), or a combination of high-fat diet (HFD; 20% carbohydrate, 20% protein, 60% fat) plus No-nitro-L-arginine methyl ester (L-NAME: 0.5 g/L) supplemented in their drinking water after adjusting the pH to 7.4 with 1N NaOH to induce HFpEF [10]. For cohort 1, the mice were subject to the HFpEF diet for 15 weeks. For cohort 2, after 8 weeks of diet, mice were randomly assigned to a control or treatment group receiving daily intraperitoneal injections of either vehicle or recombinant adropin at 450 nmol/kg animal weight prepared in PBS with 0.1% BSA for the remaining 5 weeks of the study. L-NAME supplemented drinking water was changed weekly and adropin was made fresh and sterile filtered before each use.
Co-Immunoprecipitation. […] Images were obtained using LiCor Odyssey CLx System and protein densitometry was measured using the LiCor Image Studio Lite Ver. […]

Entries after “also recorded” stand apart in the source; their conditions may differ.

Take “Adropin: recombinant Adropin peptide hormone encoded by the ENHO gene; full-length (SEQ ID NO: 1) or cleaved product of amino acids 34-76 (SEQ ID NO: 2) (CHSRSADVDSLSESSPNSSPGPCPEKAPPPQKPSHEGSYLLQP)”: the “CPT1b O-GlcNAcylation” value is listed as “restored; also recorded: reduced”.
